In PMC8980233, “Differentiating the Neuropharmacological Properties of Nicotinic Acetylcholine Receptor-Activating Alkaloids” (Frontiers in Pharmacology, 2022):
“Also recorded” adds a separate entry of the source.

Columns and labels:
α4β2 nAChR = α4β2 nAChR (Homo sapiens, UniProt P17787+P43681); experiment: Radioligand displacement binding assay
Description: All binding and functional assays for molecular target characterization were conducted by Eurofins Cerep SA (Celle-Lévescault, France) and Eurofins Panlabs Discovery Services Taiwan, Ltd. (New Taipei City, Taiwan) using their standard in vitro binding and functional assays (Supplementary Material S2). […] Negative values were considered to be an artifact arising from, for example, compounds interfering with the assay readout.
The radioligand displacement binding assays employed the gold standard filtration method using membrane preparations from stable cell lines (HEK-293 or CHO cells) expressing human or rodent target proteins to determine the interaction of the compounds with specific receptors, channels, and transporters. For this purpose, the competitive binding of test compounds against a [^125I]- [^3H]-, or [^35S]-labelled agonist and/or antagonist was determined.
Assay Source Ligand Conc. Kd Non Specific Incubation Detection Bibl.
N neuronal α7 (h) SH-SY5Y cells [125I]α-bungarotoxin 0.05 nM 0.34 nM α-bungarotoxin 120 min Scintillation 347
(antagonist radioligand) (human (1 µM) 37°C counting

α7 nAChR = α7 nAChR (Homo sapiens, UniProt P36544); experiment: nAChR functional assay, automated patch-clamp; type: cell-based; conditions: mean ± S.D.; no effect = up to 33 μM
Chain of α7 nAChR (P36544 23-502): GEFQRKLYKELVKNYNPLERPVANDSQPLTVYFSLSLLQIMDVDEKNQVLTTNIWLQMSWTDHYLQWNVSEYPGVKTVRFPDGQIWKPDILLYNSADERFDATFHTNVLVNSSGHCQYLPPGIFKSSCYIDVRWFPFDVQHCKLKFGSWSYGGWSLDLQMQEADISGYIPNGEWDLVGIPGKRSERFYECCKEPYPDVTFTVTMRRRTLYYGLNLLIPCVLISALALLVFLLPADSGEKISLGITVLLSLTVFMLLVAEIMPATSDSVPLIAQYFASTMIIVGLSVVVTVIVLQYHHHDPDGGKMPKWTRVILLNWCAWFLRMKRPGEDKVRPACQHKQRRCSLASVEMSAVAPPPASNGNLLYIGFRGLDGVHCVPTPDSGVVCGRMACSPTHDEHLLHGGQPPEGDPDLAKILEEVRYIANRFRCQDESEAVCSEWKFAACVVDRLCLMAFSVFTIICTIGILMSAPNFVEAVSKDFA
Description: Electrophysiological responses were recorded using an automated patch-clamp Patchliner Octo® system (Nanion Technologies, Munich, Germany) equipped with two EPC-10 Quadro patch-clamp amplifiers (HEKA Elektronik, Lambrecht, Germany) as described by ([Alijevic et al., 2020]). In brief, Chinese hamster ovary (CHO) or human embryonic kidney-293 (HEK-293) cells stably expressing human nAChRs (Charles River Laboratories, Wilmington, MA, United States) were maintained in DMEM/F12 medium (Gibco, Thermo Fisher Scientific, Waltham, MA, United States) supplemented with 10% heat-inactivated fetal bovine serum (FBS; Gibco) and penicillin–streptomycin (100 U/mL and 0.1 mg/ml, respectively; Sigma-Aldrich, St. Louis, MO, United States) at 37°C in 5% CO2 and 70% humidity. The following selection antibiotics were used for the cell lines: G418 (0.25 mg/ml; Sigma-Aldrich) and Zeocin^TM (0.4 mg/ml; InvivoGen, San Diego, CA, United States) for α7/Ric3 nAChR and α3β4 nAChR cells; puromycin (8 μg/ml; InvivoGen) and hygromycin B (0.4 mg/ml; Gibco) for α4β2 nAChR cells; and G418 (0.5 mg/ml), puromycin (0.25 μg/ml), and hygromycin B (0.02 mg/ml) for α6/3β2/β3 nAChR cells. The cells were used for characterizing nAChR pharmacology, because no endogenous ionotropic nicotinic receptors are found ([Roncarati et al., 2008]; [Papke and Smith-Maxwell, 2009]; [Kirsch et al., 2016]; [Scheffel et al., 2018]). The subunit distributions in the cells have been previously described ([Alijevic et al., 2020]). The human nAChRs were selected due to the lack of commercially available nAChR expression systems for mouse or zebrafish. The translatability of findings between zebrafish and human nAChR activities have been previously reported ([Papke and Smith-Maxwell, 2009]; [Papke et al., 2012]; [Alijevic et al., 2020]).
On the day of the experiment, nAChR-expressing cells were suspended in extracellular solution (in mM: 140 NaCl, 4KCl, one MgCl2, two CaCl2, five glucose, and 10 HEPES, adjusted to pH 7.4 with NaOH (298 mOsmol)), then placed in the Patchliner Octo® system. The internal solution contained in mM: 50 KCl, 60 kF, 10 NaCl, 20 EGTA, and 10 HEPES, adjusted to pH 7.2 with KOH (285 mOsmol). […] Data were analyzed using the Patchmaster software and corrected for leak current. The data acceptance criteria were as follows: seal resistance >100 MΩ; seal resistance loss variation <50%; access resistance <20 MΩ; and minimum current amplitude elicited by maximal effect concentration acetylcholine >50 pA. Offline data analysis was performed in OpenOffice™ (v4.1.2; The Apache Software Foundation, Wakefield, MA, United States). Data are presented as mean ± S.D. All experiments were performed at room temperature (24°C) and repeated at least three times. Igor Pro (v6.2.2.2; WaveMetrics, Lake Oswego, OR, United States) or Prism (v8.2.1) were used for assessing the concentration–response curves.

[1] = 0.5 mg/kg; ref Petersen et al. (1984); cited from earlier work

Chain of α4β2 nAChR (P43681 29-627 limits assumed): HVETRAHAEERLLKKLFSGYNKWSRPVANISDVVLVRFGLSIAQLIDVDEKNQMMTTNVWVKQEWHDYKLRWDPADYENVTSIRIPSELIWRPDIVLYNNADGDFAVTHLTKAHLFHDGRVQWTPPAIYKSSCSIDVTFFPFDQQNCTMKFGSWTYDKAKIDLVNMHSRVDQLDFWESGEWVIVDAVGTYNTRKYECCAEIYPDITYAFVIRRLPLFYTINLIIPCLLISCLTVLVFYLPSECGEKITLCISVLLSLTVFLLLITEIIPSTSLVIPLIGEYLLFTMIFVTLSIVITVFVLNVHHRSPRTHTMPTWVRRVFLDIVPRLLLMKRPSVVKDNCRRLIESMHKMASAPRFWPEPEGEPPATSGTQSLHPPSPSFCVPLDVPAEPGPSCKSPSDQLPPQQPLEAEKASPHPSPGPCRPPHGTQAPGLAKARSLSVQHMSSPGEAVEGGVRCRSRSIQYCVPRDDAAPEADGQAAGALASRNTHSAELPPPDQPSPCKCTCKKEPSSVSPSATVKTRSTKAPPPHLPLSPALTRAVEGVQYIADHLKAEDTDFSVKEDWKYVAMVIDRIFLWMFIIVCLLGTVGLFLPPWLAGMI
Chain of α4β2 nAChR (P17787 26-502): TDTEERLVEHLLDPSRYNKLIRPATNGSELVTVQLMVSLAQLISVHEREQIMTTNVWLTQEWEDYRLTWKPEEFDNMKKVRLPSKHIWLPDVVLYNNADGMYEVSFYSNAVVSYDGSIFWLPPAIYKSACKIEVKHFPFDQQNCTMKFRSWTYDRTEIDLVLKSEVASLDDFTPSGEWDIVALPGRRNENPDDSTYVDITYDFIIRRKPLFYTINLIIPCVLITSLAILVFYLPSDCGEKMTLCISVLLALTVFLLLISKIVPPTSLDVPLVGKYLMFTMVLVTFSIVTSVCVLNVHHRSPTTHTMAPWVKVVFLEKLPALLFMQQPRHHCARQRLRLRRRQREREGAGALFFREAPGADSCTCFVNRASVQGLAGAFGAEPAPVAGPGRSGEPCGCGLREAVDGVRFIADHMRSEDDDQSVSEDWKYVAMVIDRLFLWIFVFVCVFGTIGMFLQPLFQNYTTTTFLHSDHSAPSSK

| Compound | binding for α4β2 nAChR (α4β2 nAChR) | α7 nAChR EC50 in µM (α7 nAChR) | plasma concentration [1] |
| --- | --- | --- | --- |
| CN1C(=O)CC[C@H]1c1cccnc1 [Cotinine, (-)-cotinine] | barely detectable | no detectable activities; also recorded: No effect* | – |
| CN1CCC[C@H]1c1cccnc1 [Nicotine, (-)-Nicotine] | – | – | 5 to 6 µM |
